Assay results as given in US20260275280A1, “DIRECTED DIFFERENTIATION PROTOCOLS TO DERIVE BONE FIDE SPINAL SENSORY INTERNEURONS” (THE REGENTS OF THE UNIVERSITY OF CALIFORNIA, priority 2022, published 2026).
Entries after “also recorded” stand apart in the source; their conditions may differ.

Assays:
[1] = system: dorsal NPCs in mESC-derived EBs; experiment: Embryoid body proliferation assay (EdU incorporation, pH3) with CHIR; type: cell-based, mouse
Experimental: Embryoid body (EB) culture. and expansion: To initiate EB formation, dissociated embryonic stem cells were seeded in low attachment plates (Corning) at 10^5 cells/ml density in N2/B27 medium supplemented with 10 ng/ml bFGF. To induce posterior spinal cord and dorsal spinal patterning, RA and RA+BMP4 were added using the same timeline as described for the 2D differentiation, and the media was changed at every other day after day 5.
For EBs, EBs were collected and fixed with fresh 4% PFA for 20 minutes at 4° C. EBs were then equilibrated with 30% sucrose for overnight at 4C and embedded into the OCT compound for cryo-sectioning. 12 um sections were collected onto positive charged slides (VVVR), incubated with the antibody blocking solution for 1 hr, and then stained as above.
Image quantification: To count the number of nuclei, images were converted to 8 bit image in ImageJ, their threshold intensity was adjusted to capture only the florescent nuclei, and the number of nuclei counted using the analyze particle tool in ImageJ. For each image, the area under the DAPI staining was determined using ImageJ and target cells were represented as % of cells in 100 μm^2 DAPI^+ area.
We then asked whether activating Wnt signaling in mESC-derived NMPs affected their mitotic index. To better visualize proliferation, mESCs were permitted to assemble into three dimensional EBs (Andrews et al., 2017; Duval et al., 2019; Gupta et al., 2018), and then treated with RA±BMP4 over the same timeline as protocol 1 and 3 (FIG. 1B) to induce dorsal spinal cord patterning. EBs were then cultured with either DMSO or CHIR from day 5 to day 9 (FIG. 6C), when the cultures were pulsed with 5-Ethynyl-2′-deoxyuridine (EdU) to label cells in S-phase of the cell cycle. Strikingly, there was a ~3-fold increase in EdU+cells in CHIR-treated EBs (FIG. 6E, 6G, 6H) compared to DMSO control (FIG. 6D, 6F, 6H) in both protocols. […] Many of the dividing cells in the CHIR-treated cultures were Sox2+NPCs (FIG. 6E, 6G), while NPCs are largely depleted by day 9 in control cultures (FIG. 6D, 6F). Thus, extending the window of Wnt signaling appears to prolong NPC proliferation.

[2] = system: mESCs-derived NMPs / NPCs; experiment: Bulk RNA-Seq differential expression and qRT-PCR after RA or RA+BMP4 treatment; type: cell-based, mouse
Experimental: Bulk-RNA sequencing and data processing: Total cell lysate was obtained in buffer RLT (Qiagen) at different time points from three independent differentiations (biological replicates) conducted parallelly. RNA extraction was performed using RNeasy mini kit (Qiagen) and the quality was determined using Agilent Technologies 2100 Bioanalyzer and only samples with a RIN score >8.0 were sequenced. Stranded libraries were constructed using Universal plus mRNA sequencing kit (NuGEN) and sequenced onto 2 lanes of NovaseqS1 to generate 30 million reads/sample. Obtained reads were aligned to the latest mouse reference genome (mm10) using the STAR spliced read aligner. Pearson correlation and principal component analysis (PCA) was performed to determine the similarities among the samples and replicates. Differentially expressed genes were identified using DESeq and EdgeR package on R platform. The candidate genes were selected using cutoff false discovery rate (FDR <0.05) and log fold change (>2). Differentially expressed gene lists were further subjected to Enrichr, Metascape (Zhou et al., 2019) and DAVID functional annotation tools to identify enriched gene ontology (GO) categories.
Quantitative (a) RT-PCR analysis: RNA was isolated with RNeasy Mini Kit (Qiagen, cat no. 74104), and converted to cDNA using Superscript IV First Strand Synthesis kit (Thermo Fisher Scientific). qRT-PCR was performed using SYBR Green PCR Master Mix (Applied Biosystems) on Roche 480 Lightcycler (Roche). The relative fold expression was calculated using 2-AACt method of comparing the expression of the target gene with that of the housekeeping gene glyceraldehyde 3-phosphate dehydrogenase (Gapdh). All experiments were repeated at least 2-3 times (technical replicates) from at least two independent differentiations (biological replicates), and data is represented as mean±SEM.
We took advantage of the directed differentiation protocols to investigate the unresolved mechanisms by which RA and BMP direct dI fate specification. To further validate the use of a stem cell model, we first assessed the genetic basis of the fate decisions mediated by RA signaling. During the 24 hr pulse of RA at day 3, Pax3 levels gradually increase, while T expression concomitantly declines (FIG. 12A). […] To identify the transcriptional changes occurring during this first commitment step, we performed bulk RNA-Seq at day 3 (NMP state), day 3.25 (early transcriptional response to RA) and day 4 (dP state1) (FIG. 11B).
We hypothesized that the addition of BMP4 to NPCs in dP state1, directs them to a more dorsal dP state, i.e. dP state2 (FIG. 11A). To define the transcriptional changes occurring after BMP4 addition, we performed bulk RNA-Seq at day 4 (dP state1), day 4.25 (early transcriptional response to RA+BMP4) and at day 5 (dP state2) (FIG. 4A). […] 78 genes, out of 411, were common between both time points (FIGS. 4B, 13B). Focusing on these common genes, we identified enriched functional processes using GO analyses. The GO terms included the BMP signaling pathway (FIG. 4C, Table 3), confirming that the analysis identified BMP responsive genes.

[3] = RA±BMP4 patterned EBs, CHIR day 5 to day 9
[4] = 6 hrs of RA treatment (day 3.25) vs day 3 NMP state
[5] = 24 hours of RA exposure (day 4) vs day 3

| SMILES | increase in EdU+ cells compared to DMSO control [1, 3] | increase in the number of pHistone H3 (pH3)+ cells compared to control [1, 3] | increase in cell proliferation (EdU+ and pH3+ cells) compared to DMSO ([1]; RA±BMP4 patterned EBs, n=15-25 EBs) | identity of CHIR-treated NPCs (Pax3, Pax7, Olig3) ([1]; protocol 1 and protocol 3 EBs, day 9) | genes significantly downregulated [2, 4] | genes significantly upregulated [2, 4] | genes significantly downregulated [2, 5] | genes significantly upregulated [2, 5] | genes upregulated compared to day 4 control (no RA treatment) ([2]; 24 hr treatment of 100 nM RA) | genes whose expression levels are altered in total ([2]; day 3, day 3.25, day 4 of RA treatment) |
| --- | --- | --- | --- | --- | --- | --- | --- | --- | --- | --- |
| Cc1c[nH]c(-c2cnc(NCCNc3ccc(C#N)cn3)nc2-c2ccc(Cl)cc2Cl)n1 [CHIR, CHIR99021] | ~ 3 fold | 2-4 fold | ~ 3 fold | retained their original identity; also recorded: does not significantly (unpaired t-test) alter their dorsal-ventral identities | – | – | – | – | – | – |
| CC1=C(/C=C/C(C)=C/C=C/C(C)=C/C(=O)O)C(C)(C)CCC1 [RA, retinoic acid] | – | – | – | – | 19 genes | 138 genes | 590 genes | 389 genes | 911 genes | 979 genes |
